The results in this text go back to ChEMBL document CHEMBL5543103, “Toward a Template for Synthetic Actin-Targeting Macrolide Analogues That Inhibit Cancer Cell Invasiveness” (J Med Chem, 2024).

One data set is filed under the species Oryctolagus cuniculus. As to the kind of experiment: (§1) Inhibition of rabbit skeletal muscle G-actin polymerization at 0.5 uM preincubated for 50 sec followed by ATP addition and measured for 600 sec by fluorescence spectrophotometer method relative to control. Conditions: time 650.0 sec.
For a further data set, the species on record is Homo sapiens. As to the kind of experiment: Induction of F-actin depolymerization (unknown origin) at 10 uM measured for 900 sec in presence of ATP by fluorescence spectrophotometer method relative to MycB.
In a further data set the test system is L1210. As to the kind of experiment: Cytotoxicity against mouse L1210 cells. It counts as functional, cell-based.
Data set [1] in a line: as §1. More on the design: species or system Oryctolagus cuniculus.
A short description of data set [2]: Partition coefficient, logP of compound. It counts as physicochemical. Conditions: octanol/water.
In the next data set the test system is KB. As to the kind of experiment: Cytotoxicity against human KB cells. It counts as functional, cell-based.
A further data set deals with B16. As to the kind of experiment: Cytotoxicity against mouse B16 cells. It counts as functional, cell-based.
Data set [3] has as its system Cell membrane. As to the kind of experiment: Disruption of membrane in human SKOV3 cells assessed as F-actin aggregates formation at 0.1 uM. Format: cell membranes. Conditions: SK-OV-3.
The subject of data set [4] is A549. The data set is described as follows: Inhibition of cell invasion in human A549 cells assessed as decrease in wound density at 0.1 uM after 50 hrs by IncuCyte live-cell imaging analysis. Format: functional, cell-based.
For data set [5], the system named is Cell membrane. The data set is described as follows: Disruption of membrane projections in human SK-OV-3 cells at 0.1 uM. Format: cell membranes.
Data set [6] concerns A549. The data set is described as follows: Inhibition of cell invasion in human A549 cells assessed as decrease in wound density at 10 uM after 50 hrs by IncuCyte live-cell imaging analysis. It counts as functional, cell-based.
Data set [7] relates to Cell membrane. As to the kind of experiment: Disruption of membrane in human SK-OV-3 cells assessed as F-actin aggregates formation at 1 uM. It counts as cell membranes.
Data set [8] concerns Cell membrane. The data set is described as follows: Disruption of membrane projections in human SK-OV-3 cells at 1 uM. Format: cell membranes.

Active and inactive are the calls of the source. The calls are words filed in the database; no cut-off is given here.

The inhibition is the share of the control response that was lost under treatment. In the case of `CCC(=O)O[C@@H](C[C@H](OC)[C@@H](C)CC[C@@H](OC(=O)C(C)C)[C@H](C)[C@H](OC)[C@H](C)/C=C/N(C)C=O)C1CCCCC1`, the inhibition in the data set filed under Oryctolagus cuniculus came out at 52%. The Activity in the data set filed under Homo sapiens was determined as 45%.
As usually defined, the IC50 is the concentration that inhibits the measured activity by half. A high value points to weaker potency in that assay. As for `CO[C@@H]1C/C=C/c2nc(co2)-c2nc(co2)-c2nc(co2)[C@@H](C)CC(=O)CCC[C@@H](O)CC(=O)O[C@H](C[C@@H](OC)[C@@H](C)CCC(=O)[C@H](C)[C@H](OC(C)=O)[C@H](C)/C=C/N(C)C=O)[C@H]1C`, the half-inhibitory concentration (IC50) in the data set on L1210 came out at 10 nM.
Take `CCC(=O)O[C@@H](C[C@H](OC)[C@@H](C)CC[C@@H](OC(=O)C(C)C)[C@H](C)[C@H](OC)[C@H](C)/C=C/N1CCC1=O)C(C)C`: in the data set listed under Oryctolagus cuniculus, the inhibition came out at 30%. Also, the Activity in the data set listed under Homo sapiens was 12%.
On the same counts, the results for `CCC(=O)O[C@@H](C[C@H](OC)[C@@H](C)CC[C@@H](OC(=O)C(C)C)[C@H](C)[C@H](OC)[C@H](C)/C=C/N(C=O)CC(F)(F)F)C(C)C` are 81% and 53%.
On the same counts, the results for `CCC(=O)O[C@H](CC)C[C@H](OC)[C@@H](C)CC[C@@H](OC(=O)C(C)C)[C@H](C)[C@H](OC)[C@H](C)/C=C/N(C)C=O` are 40% and 33%.
On the same counts, the results for `CCC(=O)O[C@@H](C[C@H](OC)[C@@H](C)CC[C@@H](OC(=O)C(C)C)[C@H](C)[C@H](OC)[C@H](C)/C=C/N1CCCC1=O)C(C)C` are 29% and 26%.
`CCC(=O)O[C@H](CC)C[C@H](OC)[C@@H](C)CC[C@@H](OC(=O)CC)[C@H](C)[C@H](OC)[C@H](C)/C=C/N(C)C=O` came in with an IC50 in data set [1] of 1 µM. Besides, in the data set filed under Homo sapiens, the Activity came out at 42%.
Broadly, the logP is a log measure of how a compound divides between an organic and an aqueous phase. A low value points to lower lipophilicity. Turning to `CCC(=O)O[C@@H](C[C@H](OC)[C@@H](C)CC[C@@H](OC(=O)[C@H]1CCCO1)[C@H](C)[C@H](OC)[C@H](C)/C=C/N(C=O)CC)C(C)C`, the inhibition in the data set filed under Oryctolagus cuniculus is 63%. Besides, the Activity in the data set filed under Homo sapiens came out at 77%. In data set [2], the logP was 5.67.
As to `CO[C@@H]1CC2=CC(=O)O[C@H](C2)[C@H](C)[C@H](OC)C[C@@H](OC)/C=C/[C@H](C)[C@@H](OC)C[C@@H](OC)/C=C/[C@H](C)[C@@H]([C@@H](C)[C@@H](OC)[C@@H](C)CCC(=O)[C@H](C)[C@@H](C/C=C/N(C)C=O)OC)OC(=O)/C=C/C=C(\C)C1`, in the data set with KB, the IC50 is 100 nM.
In the data set listed under Oryctolagus cuniculus, `CCC(=O)O[C@@H](C[C@H](OC)[C@@H](C)CC[C@@H](OC(=O)[C@H]1CCCO1)[C@H](C)[C@H](OC)[C@H](C)/C=C/N(C)C=O)C(C)C` yielded an inhibition of 72%. Also, in the data set filed under Homo sapiens, the Activity turned out to be 75%. In data set [2], this molecule yielded a logP of 5.3.
The molecule `CO[C@H]([C@H](C)/C=C/N(C)C=O)[C@@H](C)C(=O)CC[C@H](C)[C@H](C[C@@H]1OC(=O)C[C@@H](OC(N)=O)C[C@H](C)C[C@H](O)[C@H](C)[C@@H](OC)c2coc(n2)-c2coc(n2)-c2coc(n2)/C=C/C[C@H](OC)[C@H]1C)OC` [KABIRAMIDE C] yielded an IC50 in the data set on L1210 of 10 nM.
As for `CCC(=O)O[C@@H](C[C@H](OC)[C@@H](C)CC[C@@H](OC(=O)C(C)C)[C@H](C)C(OC)[C@H](C)/C=C/N(C=O)C1CC1)C(C)C` (single isomer, unassigned), the inhibition in the data set listed under Oryctolagus cuniculus came to 77%. Moreover, the Activity in the data set listed under Homo sapiens came to 56%.
`CCC(=O)O[C@@H](C[C@H](OC)[C@@H](C)CC[C@@H](OC(=O)C1CCCCC1)[C@H](C)[C@H](OC)[C@H](C)/C=C/N(C)C=O)C(C)C` had an inhibition in the data set filed under Oryctolagus cuniculus of 65%. Besides, the Activity in the data set listed under Homo sapiens worked out at 20%.
In the data set with B16, `COC[C@@H](OC)C(=O)O[C@H](CC[C@H](C)[C@H](C[C@@H]1OC(=O)C[C@@H](O)C/C=C/C(=O)[C@H](C)[C@H](OC)c2coc(n2)-c2coc(n2)-c2coc(n2)/C=C/C[C@H](OC)[C@H]1C)OC)[C@H](C)[C@H](OC(C)=O)[C@H](C)/C=C/N(C)C=O` yielded an IC50 of 0.5 nM. Besides, the result in the data set with Cell membrane [3] and in the data set on Cell membrane [5] was Active. Also, the inhibition result in the data set with A549 [4] was “Active”.
Take `CCC(=O)O[C@@H](C[C@H](OC)[C@@H](C)CC[C@@H](OC(=O)C1CCC1)[C@H](C)[C@H](OC)[C@H](C)/C=C/N(C)C=O)C(C)C`: the inhibition in the data set listed under Oryctolagus cuniculus was found to be 67%. Further, the Activity in the data set filed under Homo sapiens amounted to 52%.
On the same counts, the results for `CCC(=O)O[C@@H](C[C@H](OC)[C@@H](C)CC[C@@H](OC(=O)C1CCCC1)[C@H](C)[C@H](OC)[C@H](C)/C=C/N(C)C=O)C(C)C` are 53% and 39%.
For `CCC(=O)O[C@@H](C[C@H](OC)[C@@H](C)CC[C@@H](OC(=O)[C@@H]1CCCO1)[C@H](C)[C@H](OC)[C@H](C)/C=C/N(C)C=O)C(C)C` the same measures were 50% and 67%.
For `CCC(=O)O[C@@H](C[C@H](OC)[C@@H](C)CC[C@@H](OC(=O)C(C)C)[C@H](C)[C@H](OC)[C@H](C)/C=C/N(C=O)CC)C(C)C` the same measures were 85% and 87%.
`CO[C@@H](C[C@@H]1OC(=O)C[C@@H](O)C[C@H](O)C[C@H](O)[C@H](C)[C@@H](OC)c2coc(n2)-c2coc(n2)-c2coc(n2)/C=C/CC[C@H]1C)[C@@H](C)CCC(=O)[C@H](C)[C@@H](C/C=C/N(C)C=O)OC`: the IC50 in the data set on L1210 was less than 1 nM.
As to `CCC(=O)O[C@@H](C[C@H](OC)[C@@H](C)CC[C@@H](OC(=O)[C@H]1CCCN1C)[C@H](C)[C@H](OC)[C@H](C)/C=C/N(C)C=O)C(C)C`, in the data set filed under Oryctolagus cuniculus, the inhibition is 45%. Also, the Activity in the data set filed under Homo sapiens was 25%.
On to `CCC(=O)O[C@H](CC)C[C@H](OC)[C@@H](C)CC[C@H](OC(=O)CC)[C@H](C)[C@H](OC)[C@H](C)/C=C/N(C)C=O`, for which, in data set [1], inhibition was half-maximal at 5.5 µM (IC50). Further, the Activity in the data set filed under Homo sapiens stood at 17%.
In the case of `CO[C@@H]([C@@H](C)[C@@H](CC[C@H](C)[C@H](C[C@H](OC(=O)CCCN)C(C)C)OC)OC(=O)[C@H]1CCCO1)[C@H](C)/C=C/N(C)C=O`, the inhibition in the data set filed under Oryctolagus cuniculus is 53%. Besides, in the data set filed under Homo sapiens, the Activity turned out to be 58%. The inhibition result in the data set with A549 [6] was “Active”. In data set [2], this molecule displayed a logP of 4.18.
Consider `CCN(C=O)/C=C/[C@@H](C)[C@@H](OC)[C@@H](C)[C@@H](CC[C@H](C)[C@H](C[C@H](OC(=O)CCCN)C(C)C)OC)OC(=O)[C@H]1CCCO1`, for which the result in the data set with Cell membrane [7] and in the data set on Cell membrane [8] was Active. Also, the inhibition entry in the data set on A549 [6] was “Active”. Besides, the logP in data set [2] stood at 4.55.
The molecule `CC[C@@H](O)C[C@H](OC)[C@@H](C)CC[C@@H](OC(=O)C(C)C)[C@H](C)[C@H](OC)[C@H](C)/C=C/N(C)C=O` registered an inhibition in the data set filed under Oryctolagus cuniculus of 30%. Also, the Activity in the data set listed under Homo sapiens was 0%.
For `CCCN(C=O)/C=C/[C@@H](C)[C@@H](OC)[C@@H](C)[C@@H](CC[C@H](C)[C@H](C[C@H](OC(=O)CC)C(C)C)OC)OC(=O)C(C)C` the same measures were 40% and 32%.
For `CCC(=O)O[C@@H](C[C@H](OC)[C@@H](C)CC[C@@H](OC(=O)C(C)C)[C@H](C)[C@H](OC)[C@H](C)/C=C/N(C)C=O)C(C)C` the same measures were 21% and 6%.
For `CCC(=O)O[C@@H](C[C@H](OC)[C@@H](C)CC[C@@H](OC(=O)c1ccco1)[C@H](C)[C@H](OC)[C@H](C)/C=C/N(C)C=O)C(C)C` the same measures were 43% and 41%.
In the data set listed under Oryctolagus cuniculus, `CCC(=O)O[C@@H](C[C@H](OC)[C@@H](C)CC[C@@H](OC(=O)C(C)C)[C@H](C)[C@H](OC)[C@H](C)/C=C/N1CCCCC1=O)C(C)C` returned an inhibition of 18%. The Activity in the data set filed under Homo sapiens was determined as 14%.
